From patent US5545625A, “Preventing conversion of citrulline to argininosuccinate to limit pathological nitric oxide overproduction” (The Medical College of Wisconsin Research Foundation, Inc., priority 1994, dated 1996)

What was measured:
[1] = system: nitric oxide synthase mRNA; experiment: RT-PCR of nitric oxide synthase mRNA in induced rat aortic smooth muscle cells (Example III); type: cell-based; details: LPS 30 μg/ml plus interferon-gamma 50 ng/ml with mithramycin, 6 hours; FIG. 3
Description: Rat aortic smooth muscle cells were grown as described in Example I and were treated with 30 μg/ml bacterial lipopolysaccharide in combination with 50 ng/ml interferon-gamma. […] RNA was extracted by a modified guanidinium isothiocyanate method (RNAzol; Cinna/Biotecz, Houston, Tex.). Reverse transcriptase-polymerase chain reaction was performed by standard methods using 1 μg of total RNA. This was followed by polymerase chain reaction amplification using synthetic gene-specific primers for rat argininosuccinate synthetase as described in Amaya, Y., et al, J. Biochem. (Tokyo) 103, 177-181 (1988), for argininosuccinate lyase as described in Surh, L. C., et al, Nucleic Acids Research, 16, 9352 (1988) and murine-inducible nitric oxide synthase as described in Lyons, C. R., et al, J. Biol. Chem. 267, 6370-6374 (1992). The primers are specifically described in Hattori, Y., et al, J. Biol. Chem. 269, 9405-9408 (1994). Polymerase chain reaction amplification was performed according to the following schedule: denaturation, annealing, and elongation at 95, 55 and 72° C. for 30 sec, 30 sec and 1 min, respectively, for 30 cycles. […] Polymerase chain reaction products were electrophoresed on a 1.5% agarose gel containing ethidium bromide and visualized by UV-induced fluorescence. […]

[2] = system: rat aortic smooth muscle cells; experiment: Nitrite production (indicator of cellular NO synthesis) by LPS/interferon-gamma induced rat aortic smooth muscle cells (Examples IV, V); type: cell-based; details: 24 hours, FIG. 4
Description: Rat aortic smooth muscle cells were grown as described in Example I and were continuously treated with 30 μg/ml of bacterial lipopolysaccharide in combination with 50 ng/ml of interferongamma. Concentrations of mithramycin as indicated in FIG. 4 were added either simultaneously with immunostimulant (filled in circles in FIG. 4) or 4 hours later (open circles in FIG. 4).
Nitrite was used as an indicator of cellular NO synthesis and assay was carried out as described in Gross, S. S., et al, J. Biol. Chem. 267, 25722-25729 (1992). In the assay, cells were treated with serum- and arginine-free RPMI 1640 medium containing the desired test agents for 24 hours. The accumulation of nitrite in the cell culture medium was quantified colorimetrically after adding 100 μl of Griess reagent (1% sulfanilamide and 0.1% naphthalene diamine in 5% o-phosphoric acid) to an equal volume of sample.
Rat aortic smooth muscle cells were grown as described in Example I and were treated with 30 μg/ml of bacterial lipopolysaccharide in combination with 50 ng/ml of interferon-gamma. Concentrations of L-citrulline and L-arginine as indicated in FIG. 5 were added simultaneously with immunostimulant. Nitrite was used as an indicator of cellular NO synthesis and assay therefor was carried out as described in Example IV.

[3] = system: human treated with interleukin-2; experiment: Hypotension during interleukin-2 treatment for renal cell cancer (Examples VIII, XIV); type: in vivo; details: interleukin-2 1×10^6 units, 5 days; mithramycin 25 μg/kg intravenously as pretreatment and at 24 hour intervals
Description: A human is treated for renal cell cancer with interleukin-2 (1×10^6 units) for 5 days. By the fifth day, the patient's blood pressure falls to 80/55 mm Hg and the patient encounters nausea and extreme discomfort. Three weeks later, the patient returns for a second course of interleukin-2 treatment but is pretreated (before commencing interleukin-2 infusion) with mithramycin (25 μg/kg) and is treated at 24 hour intervals thereafter with 25 μg/kg of mithramycin. The mithramycin is administered intravenously in 50 ml saline over a 3 to 6 hour interval.
A human is treated for renal cell cancer with interleukin-2 (1×10^6) for 5 days. Simultaneously with commencing interleukin-2 infusion, L-thiocitrulline (10 mg/kg/day) is administered.

[4] = system: patient with Gram negative septicemia; experiment: Blood pressure in septicemia patient given N^G -methyl-L-arginine plus test agent (Examples X, XVI); type: in vivo, human; details: N^G -methyl-L-arginine 20 mg/kg bolus then 10 mg/kg/hr, plus mithramycin 25 μg/kg intravenously over 3-6 hours
Description: A patient with Gram negative septicemia and blood pressure of 80/55 mm Hg is administered N^G -methyl-L-arginine in a bolus dose of 20 mg/kg intravenously in saline and thereafter is given a sustained infusion of N^G -methyl-L-arginine at a dosage of 10 mg/kg/hr. Mithramycin (25 μg/kg) is given intravenously in 50 ml saline over 3-6 hours starting at the time of the bolus dose of N^G -methyl-L-arginine. […] The patient is released after 2 days.
A patient with a Gram negative septicemia and blood pressure of 80/55 mm Hg is administered N^G -methyl-L-arginine in a bolus dose of 20 mg/kg intravenously in saline and thereafter is given a sustained infusion of N^G -methyl-L-arginine at a dose of 10 mg/kg/hr. N^ω -Methyl-L-citrulline (40 mg/kg) is given intravenously in 50 ml saline over 3-6 hours starting at the time of the bolus dose of N^G -methyl-L-arginine.

SMILES: COC(C(=O)C(O)C(C)O)C1Cc2cc3cc(OC4CC(OC5CC(O)C(O)C(C)O5)C(O)C(C)O4)c(C)c(O)c3c(O)c2C(=O)C1OC1CC(OC2CC(OC3CC(C)(O)C(O)C(C)O3)C(O)C(C)O2)C(O)C(C)O1 (centres unmarked) [mithramycin]
- gene transcription of nitric oxide synthase (mRNA level) [1]: inhibits gene transcription of argininosuccinate synthetase and nitric oxide synthase
- nitrite accumulation in cell culture medium ([2]; mithramycin added 4 hours after immunostimulant): effectiveness to block NO production is markedly diminished
- nitrite accumulation in cell culture medium ([2]; mithramycin added simultaneously with immunostimulant): inhibits induction of NO synthetic activity but is not a direct inhibitor of argininosuccinate synthetase or nitric oxide synthase
- development of hypotension [3]: hypotension does not develop
- blood pressure [4]: becomes normotensive within minutes of administration of the bolus dose of N^G -methyl-L-arginine and the normotensive state is sustained
